Measured values published in patent US20020173502A1, “Pharmaceutically active compounds” (priority 2001, published 2002).

How the values were obtained:
[1] = target: T1, cGMP PDE5 (Homo sapiens, UniProt O76074); test: Phosphodiesterase (PDE) inhibitory activity, in vitro IC50; type: biochemical; details: read-out: IC50 as an inhibitor of cGMP PDE5
T1 construct: were obtained from human corpus cavernosum or human platelets; from tissue; host or cells: human corpus cavernosum or human platelets
Experimental: The compounds of the present invention are cGMP PDE5 inhibitors. In vitro PDE inhibitory activities against cyclic guanosine 3′,5′-monophosphate (CGMP) and cyclic adenosine 3′,5′-monophosphate (cAMP) phosphodiesterases were determined by measurement of their IC50 values (the concentration of compound required for 50% inhibition of enzyme activity).
The required PDE enzymes were isolated from a variety of sources, including human corpus cavernosum, human and rabbit platelets, human cardiac ventricle, human skeletal muscle and human and canine retina, essentially by the method of W. J. Thompson and M. M. Appleman (Biochem., 1971, 10, 311). In particular, the cGMP-specific PDE (PDE5) and the cGMP-inhibited cAMP PDE (PDE3) were obtained from human corpus cavernosum or human platelets; the cGMP-stimulated PDE (PDE2) was obtained from human corpus cavernosum and human platelets; the calcium/calmodulin (Ca/CAM)-dependent PDE (PDE1) from human cardiac ventricle; the cAMP-specific PDE (PDE4) from human skeletal muscle and human recombinant, expressed in SF9 cells; and the photoreceptor PDE (PDE6) from human or canine retina. Phosphodiesterases 7-11 were generated from full length human recombinant clones transfected into SF9 cells. […]

[2] = Hepatocyte incubation, metabolism followed by turbulent flow LC-MS-MS; type: in vitro ADME, human, dog; details: test compound 2 μM, sampled 0-180 minutes; transitions 439 to 84 (ketone) and 441 to 84 (alcohol)
Experimental: Hepatocyte incubations were used to determine the metabolism of both compound 1A according to the present invention and also the compound of Preparation 1. In such testing a marker compound was routinely included to ensure reproducible, active preparations were obtained.
Standard methodologies relating to hepatocyte testing can be found in: Carlille, D, Zomorodi, K, Houston, B; Drug Met. Dispos. 1997, 25(8), pp903-911, “Scaling factors to relate drug metabolic clearance in hepatic microsomes isolated hepatocytes, and the intact liver”.
Marker compound: 0.3 mM Propranolol in 100% DMSO.
Test materials (e.g. compound 1A) 1 mg/ml stocks or 3 mM in 100% DMSO.
Human hepatocytes used at a concentration of 2×10^6 cells/ml (per compound tested).
Dog hepatocytes used at a concentration of 1×10^6 cells/ml (per compound tested).
William's E buffer (1 pot of William's E powder from Sigma, 900 ml distilled water, 2.2 g sodium bicarbonate, 100 ml Foetal Bovine Serum) STOP solution (Midazolam internal standard plus acetonitrile: 600 μl of 10 μg/ml midazolam +30 ml acetonitrile). […]
Hepatocyte viability was determined using the Trypan Blue Exclusion method by gentle mixing of 350 μl KH buffer+100 μI Trypan Blue solution+50 μl cell suspension in an eppendorf tube. The cells were then counted using a haemocytometer. […] The number of viable (colourless) cells within 10 squares was recorded. […]

[3] = In vivo interconversion of compound 1A and the compound of Preparation 1; details: no species or method printed

| SMILES | IC50 [1] [nM] | mass transition of the starting compound during hepatocyte incubation; product transition then appears [2] | conversion in vivo (pro-drug / metabolite relation) [3] |
| --- | --- | --- | --- |
| CCCCOc1ncc(C(C)O)cc1-c1nc2c(CC)n(C3CN(CC)C3)nc2c(=O)[nH]1 (centres unmarked) [Example 1A, 5-[2-Butoxy-5-(1-hydroxyethyl)-3-pyridinyl]-3-ethyl-2-(1-ethyl-3-azetidinyl)-2,6-dihydro-7H-pyrazolo[4,3-d]pyrimidin-7-one] | 825 | reduces to levels below the detection limit of the equipment | converted in vivo to provide the compound of Preparation 1 |
| CCCCOc1ncc(C(C)=O)cc1-c1nc2c(CC)n(C3CN(CC)C3)nc2c(=O)[nH]1 [Preparation 1, 5-(5-acetyl-2-butoxy-3-pyridinyl)-3-ethyl-2-(1-ethyl-3-azetidinyl)-2,6-dihydro-7H-pyrazolo[4,3-d]pyrimidin-7-one, reference compound] |  | reduces to levels below the detection limit of the equipment | Compound 1A is a metabolite of the compound of Preparation 1 |
